Experimental data taken from patent publication US7196105B2, “Treatment of human multiple myeloma by curcumin” (Research Development Foundation, priority 2002, dated 2007).

What was measured:
p65 subunit of NF-κB = test: Immunocytochemistry for NF-κB p65 localization in multiple myeloma cell lines; assay type: cell-based, human; conditions: all four multiple myeloma cell lines, curcumin 50 μM, 4 hours
Description: Red stain indicates the localization of p65 and blue stain (Hoechst) indicates nucleus (magnification 200×). […] U266 cells (2×10^6 cells/ml) were treated with indicated concentrations of NEMO-control or NBD-peptide (100 μM) for the indicated times. Nuclear extracts were then checked for the presence of NF-κB DNA-binding activity by EMSA. […] Untreated or NBD-peptide-treated (100 μM; 12 h) U266 cells were cytospun, and p65 immunocytochemistry was performed as described. Red stain indicates the localization of p65 and blue stain indicates nucleus (magnification 200×). […] U266 cells (2×10^6 cells/ml) were treated with indicated concentrations of NEMO-control or NBD-peptide (100 μM) for the indicated time periods, and cell viability was monitored by the trypan blue dye exclusion method. Percent cell killing was determined as: (number of trypan blue stained cells/total cells)×100. […] Stained slides were mounted with mounting medium (Sigma Colo.) and analyzed under an epifluorescence microscope (Labophot-2, Nikon, Tokyo, Japan). […] Cells with nuclear staining of NF-κB p65 or STAT3 were counted separately. One hundred cells were counted for each specimen, and the sample was graded on the basis of a 4-point scale: −, no nuclear positive cells (0%); +, low number of nuclear positive cells (<10%); ++, moderate number of nuclear positive cells (10–50%); +++, high number of nuclear positive cells (>50%).

IL-6 = IL-6 ELISA of culture supernatants; assay type: cell-based, human; conditions: U266 cells, curcumin (legend b20: 10 mM)
Description: Sixty micrograms of cytoplasmic extracts were resolved on 10% SDS-PAGE gel, electrotransferred on a nitrocellulose membrane, and probed for the following: IκBα (FIG. 4A); Bcl-2 (FIG. 4B); Bcl-xL (FIG. 4C) and cyclin D1 (FIG. 4D). The same blots were stripped and reprobed with anti-β-actin antibody to show equal protein loading (lower panel in each figure). FIG. 4E: […] U266, MM.1 or RPMI 8226 cells (1×10^7) were treated with curcumin ([…]) in 5 ml of medium for the indicated times. Supernatants were harvested and concentrated approximately 20×, and IL-6 was quantitated by an IL-6 ELISA kit. Values shown were normalized to 1 ml of un-concentrated supernatants. […] One hundred microliter aliquots were removed, and IL-6 contents were determined by an ELISA kit (Biosource International).

IκB kinase = biological target: T1, IκB kinase (Homo sapiens, UniProt O14920+O15111); test: In vitro kinase assay: IKK immunoprecipitated from untreated U266 cells, then treated with curcumin; assay type: biochemical; conditions: curcumin 30 min, GST-IκBα substrate
T1 construct: 200 μg cytoplasmic extracts were immunoprecipitated with 1 μg of anti-IKKa and IKKb antibodies each; endogenous in cells; host or cells: U266 human multiple myeloma cells (cytoplasmic extract, immunoprecipitate on protein A/G-Sepharose)
T1 sequence (O15111 whole entry): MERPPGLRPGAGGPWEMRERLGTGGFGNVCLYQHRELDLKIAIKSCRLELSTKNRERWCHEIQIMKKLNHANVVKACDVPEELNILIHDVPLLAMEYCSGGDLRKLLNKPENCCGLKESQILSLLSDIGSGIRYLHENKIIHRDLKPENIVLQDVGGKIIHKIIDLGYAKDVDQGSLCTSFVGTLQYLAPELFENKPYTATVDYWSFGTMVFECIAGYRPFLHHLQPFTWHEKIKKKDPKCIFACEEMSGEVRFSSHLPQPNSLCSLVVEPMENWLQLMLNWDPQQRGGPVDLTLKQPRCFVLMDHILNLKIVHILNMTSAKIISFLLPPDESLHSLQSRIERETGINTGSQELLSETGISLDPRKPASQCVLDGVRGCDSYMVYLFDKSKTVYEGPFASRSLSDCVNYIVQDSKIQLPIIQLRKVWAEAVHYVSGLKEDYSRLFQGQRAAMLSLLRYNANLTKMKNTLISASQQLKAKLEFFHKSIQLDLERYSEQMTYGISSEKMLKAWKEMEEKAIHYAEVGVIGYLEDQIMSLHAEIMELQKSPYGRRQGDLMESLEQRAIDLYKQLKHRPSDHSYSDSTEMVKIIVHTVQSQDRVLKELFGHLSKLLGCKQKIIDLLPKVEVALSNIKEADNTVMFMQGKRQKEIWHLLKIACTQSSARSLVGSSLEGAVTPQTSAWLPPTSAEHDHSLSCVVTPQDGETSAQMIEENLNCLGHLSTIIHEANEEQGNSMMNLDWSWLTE
T1 sequence (O14920 whole entry): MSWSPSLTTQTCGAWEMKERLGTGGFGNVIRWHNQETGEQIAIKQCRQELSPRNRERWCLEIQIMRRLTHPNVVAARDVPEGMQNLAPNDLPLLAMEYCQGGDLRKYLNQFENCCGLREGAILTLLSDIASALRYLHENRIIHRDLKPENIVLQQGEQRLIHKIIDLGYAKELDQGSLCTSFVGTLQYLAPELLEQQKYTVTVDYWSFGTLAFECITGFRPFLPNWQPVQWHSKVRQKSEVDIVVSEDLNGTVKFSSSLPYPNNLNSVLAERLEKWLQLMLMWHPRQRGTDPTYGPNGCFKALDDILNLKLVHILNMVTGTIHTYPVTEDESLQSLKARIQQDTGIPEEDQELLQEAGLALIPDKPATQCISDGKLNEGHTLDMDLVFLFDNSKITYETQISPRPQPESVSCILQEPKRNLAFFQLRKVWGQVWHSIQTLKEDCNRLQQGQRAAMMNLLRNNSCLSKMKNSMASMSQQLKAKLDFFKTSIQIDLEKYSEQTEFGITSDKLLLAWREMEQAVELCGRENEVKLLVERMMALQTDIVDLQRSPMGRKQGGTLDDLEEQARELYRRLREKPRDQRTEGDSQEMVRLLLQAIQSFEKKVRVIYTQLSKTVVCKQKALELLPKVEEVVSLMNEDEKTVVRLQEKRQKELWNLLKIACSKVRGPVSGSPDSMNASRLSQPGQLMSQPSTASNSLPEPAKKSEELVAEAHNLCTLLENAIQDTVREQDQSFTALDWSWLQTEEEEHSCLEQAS
T1 sequence (Q9Y6K9 whole entry partner): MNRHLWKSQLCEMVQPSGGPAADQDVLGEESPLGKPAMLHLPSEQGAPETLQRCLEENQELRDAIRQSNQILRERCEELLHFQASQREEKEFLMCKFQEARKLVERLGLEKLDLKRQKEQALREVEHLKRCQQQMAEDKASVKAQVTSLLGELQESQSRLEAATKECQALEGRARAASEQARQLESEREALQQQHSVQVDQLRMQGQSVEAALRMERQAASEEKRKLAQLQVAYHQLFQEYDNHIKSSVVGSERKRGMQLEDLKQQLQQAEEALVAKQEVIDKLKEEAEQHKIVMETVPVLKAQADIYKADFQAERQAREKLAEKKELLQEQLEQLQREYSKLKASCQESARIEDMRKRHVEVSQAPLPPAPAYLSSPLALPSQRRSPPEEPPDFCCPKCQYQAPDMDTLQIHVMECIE
Description: Five million U266 cells/2.5 ml were treated with curcumin (50 μM) for the indicated times and cytoplasmic extracts were prepared. FIG. 3A: Level of phosphorylated IκBα determined by Western blotting. FIG. 3B: Immunoprecipitated IκB kinase and kinase assay of IκB kinase activity (upper panel) or Western blotting for the analysis of total IKKα and IKKβ proteins in cytoplasmic extracts (lower panel). FIG. 3C: IκB kinase was immunoprecipitated and kinase assay was performed in the absence or presence of the indicated concentrations of curcumin (upper panel). Lower panel indicates the amount of GST-IκBα protein stained with Coomassie Blue in each well in the same dried gel.
The IkB kinase assay was performed with a modified method as described earlier (Manna et al., 2000). Briefly, 200 μg cytoplasmic extracts were immunoprecipitated with 1 μg of anti-IKKa and IKKb antibodies each, and the immune complexes so formed were precipitated with 0.01 ml of protein A/G-Sepharose beads for 2 hour. The beads were washed first with lysis buffer and then with kinase assay buffer (50 mM HEPES pH 7.4, 20 mM MgCl2, and 2 mM DTT). The immune complex was then assayed for kinase activity using kinase assay buffer containing […] [g-P^32]ATP, 10 μM unlabeled ATP, and 2 μg/sample glutathione S-transferase-IkBa (1–54). […] Radioactive bands of the dried gel were visualized and quantitated by PhosphorImager. […]

NF-κB = test: Immunocytochemistry for NF-κB in bone marrow CD138+ cells from multiple myeloma patients; assay type: cell-based, human; conditions: patients #5, #9 and #10, 50 μM curcumin, 2 h
Description: The cells were fixed on slides by cytospin centrifugation and immuno-stained for NF-κB or STAT3. Red stain indicates specific staining for NF-κB or STAT3, whereas blue stain indicates the relative position of the nuclei in the corresponding view.
Red stain indicates the specific staining for NF-κB or STAT3 as indicated, whereas blue stain indicates the relative position of the nuclei in the corresponding view.
Untreated or treated multiple myeloma cells were plated on a poly-L-lysine-coated glass slide by centrifugation using a Cytospin 4 (Thermoshendon, Pittsburg, Pa.), air-dried for 1 h at room temperature, and fixed with cold acetone. After a brief washing in PBS, slides were blocked with 5% normal goat serum for 1 h and then incubated either with rabbit polyclonal anti-human NF-κB p65 antibody (SC-109; dilution, 1:100) or with anti-human STAT3 antibody (SC-482; dilution, 1:100). After overnight incubation, the slides were washed and then incubated with goat anti-rabbit IgG-Alexa 594 (A-11037; dilution, 1:100) for 1 h and counter-stained for nuclei with Hoechst (50 ng/ml) for 5 min. Stained slides were mounted with mounting medium (Sigma Colo.) and analyzed under an epifluorescence microscope (Labophot-2, Nikon, Tokyo, Japan). […]

COc1cc(/C=C/C(=O)CC(=O)/C=C/c2ccc(O)c(OC)c2)ccc1O [curcumin, diferuloylmethane]
nuclear translocation of p65 (p65 subunit of NF-κB): prevented the translocation of the p65 subunit of NF-κB to the nucleus
IL-6 production (IL-6): inhibited the production of IL-6
direct inhibition of IκB kinase activity (IκB kinase): inhibited IκB kinase activity directly in a dose-dependent manner
constitutive NF-κB activation (nuclear localization) (NF-κB): downregulated NF-κB
